Here are results for 25 compounds from patent publication US5034543A, “Ascorbic acid derivative and use as antioxidants” (Nippon Hypox Laboratories Incorporated, priority 1989, dated 1991).

The nature of test [1]: Antioxidant action examined by using stable radicals: reduction activity of DPPH (Blois method, absorbance at 517 nm). As to conditions: 0.1 mM DPPH in ethanol, after 20 minutes, read-out: 50% radical eliminating concentration. The protocol:
(Antioxidant action examined by using stable radicals)
Reduction activity of α,α-diphenyl-β-picrylhydrazyl (DPPH) which was a stable free radical was examined according to the M. S. Blois method (Nature, vol. 181, page. 1199, 1958) and used as an index to antioxidant action. Thus, specimens were added to 3 ml of a 0.1 mM DPPH solution in ethanol, and absorbance at a wavelength of 517 nm was measured using a spectrophotometer after 20 minutes. The difference in absorbance from the solvent control [0.5% or less of dimethylformamide (DMF)] was taken as the reduction activity.

A short description of test [2]: Effects on formazan formation in the xanthine-xanthine oxidase-Nitrotetrazolium Blue system. As to conditions: for Inhibition ratio of formazan formation: pH 7.8, 30° C., 10 minutes; for inhibition of formazan formation (result in words): xanthine-xanthine oxidase-NTB system. It counts as biochemical. On the procedure: (Effects on formazan formation in the xanthine-xanthine oxidase-Nitrotetrazolium Blue system)
Specimens were added to a 0.05M phosphate buffer solution (pH 7.8) containing xanthine, EDTA 2Na and Nitrotetrazolium Blue (NTB) so as to provide the respective final concentrations of 5×10^-5 M, 1×10^-4 M and 5×10^-4 M and warmed at 30° C. for 3 minutes. Xanthine oxidase (manufactured by Sigma Corp.) was added, and the resulting specimens were warmed at 30° C. for 10 minutes to colorimetrically determine formazan formed by superoxide anion radicals. The inhibition ratio of formazan formation was determined from the results at concentrations of 0.5 mM and 4 mM of each specimen.

`CC1(C)OC[C@@H]([C@H]2OC(=O)C(O)=C2OCCCCCCCCCCCCCCCCC(=O)O)O1` [Compound 009]: the IC50 in test [1] turned out to be 25 µM.
The same measure, in the same setting: the figure for `CCC(C)OC1=C(O)C(=O)O[C@@H]1[C@@H]1COC(C)(C)O1` (stereo partly shown) [Compound 005] is 32 µM.
Still for that read-out and setting: with `CCCCOC(=O)COC1=C(O)C(=O)O[C@@H]1[C@@H]1COC(C)(C)O1` [Compound 019] the figure was 25 µM.
In the case of `CC1(C)OC[C@@H]([C@H]2OC(=O)C(O)=C2OCCO)O1` [Compound 012], the IC50 in test [1] amounted to 35 µM.
Same read-out and setting: with `CCCCCCCCCCCCCCCCCCOC1=C(O)C(=O)O[C@@H]1[C@@H]1COC(C)(C)O1` [Compound 001] the figure was 30 µM.
The same measure, in the same setting: the figure for `CCOC(=O)COC1=C(O)C(=O)O[C@@H]1[C@@H]1COC(C)(C)O1` [Compound 020] is 23 µM.
On the same count and under the same terms, with `CCCCCCCCCCCCOC1=C(O)C(=O)O[C@@H]1[C@@H]1COC(C)(C)O1` [Compound 002] the figure was 29 µM.
On to `CC(=O)COC1=C(O)C(=O)O[C@@H]1[C@@H]1COC(C)(C)O1` [Compound 021, L-5,6-O-isopropylidene-3-O-methylcarbomethylascorbic acid], for which the “Inhibition ratio of formazan formation” value was found to be 9.2% in test [2] (0.5 mM) and 47.4% in test [2] (4 mM). The “inhibition of formazan formation (result in words)” value in test [2] was “remarkably inhibited formazan formation”. Besides, the IC50 in test [1] amounted to 17 µM.
As to `CCCCCCCCCCOC(=O)COC1=C(O)C(=O)O[C@@H]1[C@@H]1COC(C)(C)O1` [Compound 018], the IC50 in test [1] amounted to 28 µM.
Still for that read-out and setting: the figure for `CC1(C)OC[C@@H]([C@H]2OC(=O)C(O)=C2OCC(=O)c2ccccc2)O1` [Compound 023] is 24 µM.
The same measure, in the same setting: the figure for `CCCCOC1=C(O)C(=O)O[C@@H]1[C@@H]1COC(C)(C)O1` [Compound 004] is 25 µM; for `CCOC(=O)C(C)OC1=C(O)C(=O)O[C@@H]1[C@@H]1COC(C)(C)O1` (stereo partly shown) [Compound 014] it is 26 µM; for `CC1(C)OC[C@@H]([C@H]2OC(=O)C(O)=C2OCc2cccnc2)O1` [Compound 007] it is 23 µM.
On to `CC1(C)OC[C@@H]([C@H]2OC(=O)C(O)=C2OCc2ccccc2)O1` [Compound 006], for which the IC50 in test [1] turned out to be 22 µM.
On the same count and under the same terms, with `CCOC(=O)CCCCOC1=C(O)C(=O)O[C@@H]1[C@@H]1COC(C)(C)O1` [Compound 008] the figure was 16 µM; with `COCOC1=C(O)C(=O)O[C@@H]1[C@@H]1COC(C)(C)O1` [Compound 013], 17 µM; with `CCCCCCCCOC1=C(O)C(=O)O[C@@H]1[C@@H]1COC(C)(C)O1` [Compound 003], 27 µM.
On the same count and under the same terms, the figure for `CCOC1=C(O)C(=O)O[C@@H]1[C@@H]1COC(C)(C)O1` [Compound 025] is 22 µM.
On the same count and under the same terms, with `C=CCOC1=C(O)C(=O)O[C@@H]1[C@@H]1COC(C)(C)O1` [Compound 011] the figure was 33 µM.
For the compound `CCC(=O)COC1=C(O)C(=O)O[C@@H]1[C@@H]1COC(C)(C)O1` [Compound 022, L-5,6-O-isopropylidene-3-O-(3-butanone) ascorbic acid], the “Inhibition ratio of formazan formation” value was 22.6% in test [2] (0.5 mM) and 26.7% in test [2] (4 mM). Moreover, the “inhibition of formazan formation (result in words)” value in test [2] was “remarkably inhibited formazan formation”. The IC50 in test [1] amounted to 20 µM.
In the case of `CC1(C)OC[C@@H]([C@H]2OC(=O)C(O)=C2OCC#N)O1` [Compound 024], the IC50 in test [1] was found to be 31 µM.
Same read-out and setting: with `CC1(C)OC[C@@H]([C@H]2OC(=O)C(O)=C2OCC(=O)O)O1` [Compound 015] the figure was 31 µM; with `CC1(C)OC[C@@H]([C@H]2OC(=O)C(O)=C2OCC(=O)OCc2ccccc2)O1` [Compound 016], 25 µM; with `CCOC(=O)CCCOC1=C(O)C(=O)O[C@@H]1[C@@H]1COC(C)(C)O1` [Compound 010], 16 µM.
Still for that read-out and setting: the figure for `CC(C)(C)OC(=O)COC1=C(O)C(=O)O[C@@H]1[C@@H]1COC(C)(C)O1` [Compound 017] is 25 µM.
